One experiment has as its target T1, Ba/F3 cells expressing p210Bcr-Abl-T315I (Homo sapiens, UniProt P00519, T315I, cells depend on it).
T1 construct: fused on or other part: P11274 (Breakpoint cluster region protein)
Briefly: phenoresponse-based cellular assay (cell count and viability), Ba/F3 T315I test cells.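 Further: cells counted by automated microcell imaging, viability scored by trypan blue exclusion, phenoresponse judged against parental Ba/F3 and Ba/F3 carrying wild-type p210Bcr-Abl.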 Set-up: species or system murine. As to conditions: concentration inhibiting growth of the cell line by 50% in the cellular assay, read-out: T315I (IC50 activity category).
For `Oc1c(Cl)cc(Br)cc1/C=N/Nc1ncc(F)c(N2CCOCC2)n1`, the GI50 is less than 300 nM.
For the compound `Oc1ccccc1/C=N/Nc1ncc(F)c(N2CCOCC2)n1`, the GI50 was less than 10000 nM.
The same measure, in the same setting: with `Fc1cnc(N/N=C/c2ccccn2)nc1N1CCOCC1` the figure was less than 1000 nM; with `Oc1ccc(Br)cc1/C=N/Nc1ncc(F)c(N2CCOCC2)n1`, less than 1000 nM.
On the same count and under the same terms, with `Cc1ccccc1/C=N/Nc1ncc(F)c(N2CCOCC2)n1` the figure was more than 10000 nM; with `Cc1ccc(/C=N/Nc2ncc(F)c(N3CCOCC3)n2)cc1`, more than 10000 nM; with `Fc1cnc(N/N=C/c2ccccc2)nc1N1CCOCC1`, more than 10000 nM.
On the same count and under the same terms, under `Oc1c(Cl)cc(-c2cccc(C(F)(F)F)c2)cc1/C=N/Nc1ncc(F)c(N2CCOCC2)n1` stands less than 300 nM; under `O=C(Nc1cccc(C(F)(F)F)c1)c1cc(Cl)c(O)c(/C=N\Nc2ncc(F)c(N3CCOCC3)n2)c1`, less than 1000 nM; under `O=C(Nc1cccc(C(F)(F)F)c1)c1cccc(/C=N/Nc2ncc(F)c(N3CCOCC3)n2)n1`, more than 10000 nM.
In the case of `O=C(Nc1cccc(C(F)(F)F)c1)c1ccc(/C=N/Nc2ncc(F)c(N3CCOCC3)n2)nc1`, the GI50 is less than 1000 nM.
On the same count and under the same terms, under `Fc1cnc(N/N=C/c2ccc(-c3cccc(C(F)(F)F)c3)cn2)nc1N1CCOCC1` stands less than 1000 nM; under `O=C(C/C=N/Nc1ncc(F)c(N2CCOCC2)n1)Nc1cccc(C(F)(F)F)c1`, more than 10000 nM; under `Fc1cnc(N/N=C/c2ccc(Nc3cccc(C(F)(F)F)c3)cn2)nc1N1CCOCC1`, less than 300 nM.
Still for that read-out and setting: with `Cc1cccc(Cl)c1NC(=O)C/C=N/Nc1ncc(F)c(N2CCOCC2)n1` the figure was more than 10000 nM; with `Oc1ccc(-c2ccc(Nc3ccc(/C=N/Nc4ncc(F)c(N5CCOCC5)n4)nc3)cc2C(F)(F)F)cc1`, less than 300 nM; with `Oc1cccc(-c2ccc(Nc3ccc(/C=N/Nc4ncc(F)c(N5CCOCC5)n4)nc3)cc2)c1`, less than 300 nM.
Same read-out and setting: with `Fc1cnc(N/N=C/c2ccc(Nc3ccc(N4CCOCC4)cc3)cn2)nc1N1CCOCC1` the figure was less than 1000 nM.
On to `Fc1cnc(N/N=C/c2ccc(Nc3ccc(-c4cccnc4)cc3)cn2)nc1N1CCOCC1`, for which the GI50 is less than 300 nM.
In the case of `Cc1cccc(Cl)c1-c1ccc(Nc2ccc(/C=N/Nc3ncc(F)c(N4CCOCC4)n3)nc2)cc1`, the GI50 is less than 300 nM.
Same read-out and setting: with `Fc1cnc(N/N=C/c2ccc(Nc3ccc(-c4ccccn4)c(Cl)c3)cn2)nc1N1CCOCC1` the figure was less than 1000 nM.
Same read-out and setting: under `CC(C(=O)O)c1ccc(Nc2ccc(/C=N/Nc3ncc(F)c(N4CCOCC4)n3)nc2)cc1` (stereo not drawn) stands more than 10000 nM.
`Oc1cccc(-c2cccc(Nc3ccc(/C=N/Nc4ncc(F)c(N5CCOCC5)n4)nc3)c2)c1`: the GI50 was less than 300 nM.
As to `Fc1cnc(N/N=C/c2ccc(Nc3cccc(-n4ccnc4)c3)cn2)nc1N1CCOCC1`, the GI50 was less than 1000 nM.
Regarding `Cc1cc(Nc2ccc(/C=N/Nc3ncc(F)c(N4CCOCC4)n3)nc2)cc(N2CCNCC2)c1`, the GI50 is less than 1000 nM.
On the same count and under the same terms, with `O=C(NNc1ncc(F)c(N2CCOCC2)n1)c1ccc(Nc2cccc(C(F)(F)F)c2)cn1` the figure was less than 1000 nM.
In the case of `Cc1cc(Nc2cccc(C(F)(F)F)c2)ccc1/C=N/Nc1ncc(F)c(N2CCOCC2)n1`, the GI50 was more than 10000 nM.
Still for that read-out and setting: with `CN(C)c1cc(O)cc(Nc2ccc(/C=N/Nc3ncc(F)c(N4CCOCC4)n3)nc2)c1` the figure was less than 1000 nM; with `Fc1cnc(N/N=C/c2ccc(Nc3cccc(C(F)(F)F)c3)cn2)nc1NCc1ccccc1`, less than 300 nM.
The same measure, in the same setting: under `Fc1cnc(N/N=C/c2ccc(Nc3cccc(C(F)(F)F)c3)cn2)nc1NCC1CC1` stands less than 300 nM; under `Fc1cnc(N/N=C/c2ccc(Nc3cccc(C(F)(F)F)c3)cn2)nc1NCCN1CCOCC1`, less than 300 nM.
The same measure, in the same setting: under `CN(/N=C/c1ccc(Nc2cccc(C(F)(F)F)c2)cn1)c1ncc(F)c(N2CCOCC2)n1` stands less than 300 nM; under `C/C(=N\Nc1ncc(F)c(N2CCOCC2)n1)c1ccc(Nc2cccc(C(F)(F)F)c2)cn1`, less than 300 nM; under `Fc1cnc(N/N=C/c2ccc(Nc3cccc(C(F)(F)F)c3)cn2)nc1-c1cncc(-c2ccccc2)c1`, less than 1000 nM.
In the case of `Fc1cnc(N/N=C/c2ccc(Nc3cccc(C(F)(F)F)c3)cn2)nc1-c1cncc(C2CC2)c1`, the GI50 is less than 10000 nM.
On the same count and under the same terms, under `Oc1cccc(Nc2cccc(Nc3ccc(/C=N/Nc4ncc(F)c(N5CCOCC5)n4)nc3)c2)c1` stands less than 1000 nM.

The next experiment relates to wild type non-transformed Ba/F3 cells. Description: phenoresponse-based cellular assay, wild type Ba/F3 control cells. Further details: species or system murine. As to conditions: Mus musculus; concentration inhibiting growth of the cell line by 50% in the cellular assay; wt BaF3 control cells; read-out: wt BaF3 (IC50 activity category).
Turning to `Oc1c(Cl)cc(Br)cc1/C=N/Nc1ncc(F)c(N2CCOCC2)n1`, the half-inhibitory concentration (IC50) (commonly the point on the concentration scale where inhibition reaches its midpoint) is less than 1000 nM.
Take `Oc1ccccc1/C=N/Nc1ncc(F)c(N2CCOCC2)n1`: the IC50 is less than 10000 nM.
Still for that read-out and setting: under `Fc1cnc(N/N=C/c2ccccn2)nc1N1CCOCC1` stands less than 1000 nM; under `Oc1ccc(Br)cc1/C=N/Nc1ncc(F)c(N2CCOCC2)n1`, less than 1000 nM.
Still for that read-out and setting: under `Cc1ccccc1/C=N/Nc1ncc(F)c(N2CCOCC2)n1` stands not below 10000 nM; under `Cc1ccc(/C=N/Nc2ncc(F)c(N3CCOCC3)n2)cc1`, not below 10000 nM.
On the same count and under the same terms, with `Fc1cnc(N/N=C/c2ccccc2)nc1N1CCOCC1` the figure was not below 10000 nM; with `Oc1c(Cl)cc(-c2cccc(C(F)(F)F)c2)cc1/C=N/Nc1ncc(F)c(N2CCOCC2)n1`, less than 1000 nM; with `O=C(Nc1cccc(C(F)(F)F)c1)c1cc(Cl)c(O)c(/C=N\Nc2ncc(F)c(N3CCOCC3)n2)c1`, less than 1000 nM.
Regarding `O=C(Nc1cccc(C(F)(F)F)c1)c1cccc(/C=N/Nc2ncc(F)c(N3CCOCC3)n2)n1`, the IC50 is not below 10000 nM.
With `O=C(Nc1cccc(C(F)(F)F)c1)c1ccc(/C=N/Nc2ncc(F)c(N3CCOCC3)n2)nc1`, the IC50 is less than 10000 nM.
The same measure, in the same setting: with `Fc1cnc(N/N=C/c2ccc(-c3cccc(C(F)(F)F)c3)cn2)nc1N1CCOCC1` the figure was less than 1000 nM.
Turning to `O=C(C/C=N/Nc1ncc(F)c(N2CCOCC2)n1)Nc1cccc(C(F)(F)F)c1`, the half-maximal inhibitory concentration (IC50) is not below 10000 nM.
Same read-out and setting: under `Fc1cnc(N/N=C/c2ccc(Nc3cccc(C(F)(F)F)c3)cn2)nc1N1CCOCC1` stands less than 300 nM.
Still for that read-out and setting: under `Cc1cccc(Cl)c1NC(=O)C/C=N/Nc1ncc(F)c(N2CCOCC2)n1` stands not below 10000 nM; under `Oc1ccc(-c2ccc(Nc3ccc(/C=N/Nc4ncc(F)c(N5CCOCC5)n4)nc3)cc2C(F)(F)F)cc1`, less than 300 nM.
The same measure, in the same setting: with `Oc1cccc(-c2ccc(Nc3ccc(/C=N/Nc4ncc(F)c(N5CCOCC5)n4)nc3)cc2)c1` the figure was less than 300 nM; with `Fc1cnc(N/N=C/c2ccc(Nc3ccc(N4CCOCC4)cc3)cn2)nc1N1CCOCC1`, less than 1000 nM.
Turning to `Fc1cnc(N/N=C/c2ccc(Nc3ccc(-c4cccnc4)cc3)cn2)nc1N1CCOCC1`, the IC50 is less than 1000 nM.
Same read-out and setting: under `Cc1cccc(Cl)c1-c1ccc(Nc2ccc(/C=N/Nc3ncc(F)c(N4CCOCC4)n3)nc2)cc1` stands less than 300 nM; under `Fc1cnc(N/N=C/c2ccc(Nc3ccc(-c4ccccn4)c(Cl)c3)cn2)nc1N1CCOCC1`, less than 1000 nM; under `CC(C(=O)O)c1ccc(Nc2ccc(/C=N/Nc3ncc(F)c(N4CCOCC4)n3)nc2)cc1` (stereo not drawn), not below 10000 nM.
Consider `Oc1cccc(-c2cccc(Nc3ccc(/C=N/Nc4ncc(F)c(N5CCOCC5)n4)nc3)c2)c1`, for which the IC50 was less than 1000 nM.
With `Fc1cnc(N/N=C/c2ccc(Nc3cccc(-n4ccnc4)c3)cn2)nc1N1CCOCC1`, the half-inhibitory concentration (IC50) is less than 1000 nM.
On the same count and under the same terms, with `Cc1cc(Nc2ccc(/C=N/Nc3ncc(F)c(N4CCOCC4)n3)nc2)cc(N2CCNCC2)c1` the figure was less than 10000 nM.
Same read-out and setting: with `O=C(NNc1ncc(F)c(N2CCOCC2)n1)c1ccc(Nc2cccc(C(F)(F)F)c2)cn1` the figure was less than 1000 nM; with `Cc1cc(Nc2cccc(C(F)(F)F)c2)ccc1/C=N/Nc1ncc(F)c(N2CCOCC2)n1`, not below 10000 nM.
Still for that read-out and setting: with `CN(C)c1cc(O)cc(Nc2ccc(/C=N/Nc3ncc(F)c(N4CCOCC4)n3)nc2)c1` the figure was less than 10000 nM; with `Fc1cnc(N/N=C/c2ccc(Nc3cccc(C(F)(F)F)c3)cn2)nc1NCc1ccccc1`, less than 300 nM; with `Fc1cnc(N/N=C/c2ccc(Nc3cccc(C(F)(F)F)c3)cn2)nc1NCC1CC1`, less than 300 nM.
With `Fc1cnc(N/N=C/c2ccc(Nc3cccc(C(F)(F)F)c3)cn2)nc1NCCN1CCOCC1`, the IC50 was less than 300 nM.
Same read-out and setting: with `CN(/N=C/c1ccc(Nc2cccc(C(F)(F)F)c2)cn1)c1ncc(F)c(N2CCOCC2)n1` the figure was less than 300 nM.
The same measure, in the same setting: with `C/C(=N\Nc1ncc(F)c(N2CCOCC2)n1)c1ccc(Nc2cccc(C(F)(F)F)c2)cn1` the figure was less than 300 nM.
On the same count and under the same terms, with `Fc1cnc(N/N=C/c2ccc(Nc3cccc(C(F)(F)F)c3)cn2)nc1-c1cncc(-c2ccccc2)c1` the figure was less than 1000 nM; with `Fc1cnc(N/N=C/c2ccc(Nc3cccc(C(F)(F)F)c3)cn2)nc1-c1cncc(C2CC2)c1`, less than 10000 nM.
In the case of `Oc1cccc(Nc2cccc(Nc3ccc(/C=N/Nc4ncc(F)c(N5CCOCC5)n4)nc3)c2)c1`, the IC50 was less than 1000 nM.
